We go through 17 molecules from patent publication US4576940A, “Anti-allergic 3-indolecarboxamides” (Yoshitomi Pharmaceutical Industries, Ltd., priority 1983, dated 1986).

The conditions of data set [1]: background, in words; cited from earlier work.
The target of data set [2] is T1, 5-lipoxygenase (Cavia porcellus, UniProt A0A286X958).
T1 construct: Guinea pigs were anesthetized with ethyl ether, and the peripheral blood was collected in heparinized syringes; endogenous in cells; host or cells: guinea pig peripheral blood leukocytes (dextran sedimentation, erythrocytes lysed)
T1 sequence (A0A286X958 1-674): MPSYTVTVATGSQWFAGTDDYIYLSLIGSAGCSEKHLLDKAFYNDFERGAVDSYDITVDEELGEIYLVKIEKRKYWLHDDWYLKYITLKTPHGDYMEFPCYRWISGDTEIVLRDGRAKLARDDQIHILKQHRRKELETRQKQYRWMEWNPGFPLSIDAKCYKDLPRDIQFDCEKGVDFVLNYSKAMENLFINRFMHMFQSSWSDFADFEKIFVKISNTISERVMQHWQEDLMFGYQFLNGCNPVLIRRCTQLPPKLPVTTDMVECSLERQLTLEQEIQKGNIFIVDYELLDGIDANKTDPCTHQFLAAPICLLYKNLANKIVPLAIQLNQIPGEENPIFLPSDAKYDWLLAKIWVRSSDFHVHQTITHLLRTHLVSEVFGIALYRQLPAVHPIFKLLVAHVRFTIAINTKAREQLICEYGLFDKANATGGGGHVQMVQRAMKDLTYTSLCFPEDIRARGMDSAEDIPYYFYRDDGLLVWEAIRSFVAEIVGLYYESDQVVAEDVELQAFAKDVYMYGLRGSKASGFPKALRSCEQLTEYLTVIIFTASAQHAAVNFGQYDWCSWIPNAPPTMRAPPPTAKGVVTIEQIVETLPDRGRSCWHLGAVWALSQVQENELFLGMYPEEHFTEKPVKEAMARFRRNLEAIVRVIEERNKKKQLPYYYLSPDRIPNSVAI
The data set is described as follows: 5-lipoxygenase inhibition (arachidonic acid induced chemiluminescence of peripheral leukocytes in guinea pigs). It is filed as cell-based, guinea pig. Here is the method: 1. Inhibitory activity on 5-lipoxygenase (Effect of test compounds on arachidonic acid induced chemiluminescence of peripheral leukocytes in guinea pigs)
(1) Isolation of leukocytes and preparation of leukocyte suspension
Guinea pigs were anesthetized with ethyl ether, and the peripheral blood was collected in heparinized syringes (10 U/ml, blood) from the abdominal aorta through a needle.
50 ml of a 6% dextran solution (molecular weight 177,000, Nakarai Chemicals Ltd.) was added to 100 ml of blood. This suspension was gently mixed, and was allowed to sediment for 60 minutes at room temperature. The upper leukocyte-rich suspension was centrifuged at 400×g for 10 minutes at room temperature. Tris-HCl buffer (pH 7.65) containing 5.0 ml of a 0.83% ammonium chloride solution was added to the cell pellet to lyse remaining erythrocytes. This suspension was centrifuged at 150×g for 10 minutes at 4° C. Eagle's MEM (10 ml) containing 10% fetal bovine serum (Flow Laboratories, Inc.) was added to the cell pellet. This suspension was centrifuged under the same conditions. The cell pellet was suspended in an equal volume of phosphate buffered saline (pH 7.4) containing 0.2% glucose and 0.2% bovine serum albumin, and this mixture was centrifuged under the same conditions. The above procedure was performed twice, and the cell pellet was suspended in the above buffer to adjust the leukocyte counts to 5×10^6 cells/ml.
(2) Chemiluminescence assay
Chemiluminescence was measured by the method of Yoshimoto et al. which is described in Biochem. Biophys. Res. Commun. 107, 779-784, 1982. Briefly, 0.3 ml of a leukocyte suspension was preincubated with 5 μl of a test compound solution of phosphate-buffered saline as controls, 0.05 ml of 1 mM luminol (Nakarai Chemicals, Ltd.) and 0.05 ml of 100 μM indomethacin (Sumitomo Chemical Co. Ltd.) After preincubation at 26° C. for 2 minutes, 100 μl of 2 mM arachidonic acid (Sigma) was added to the reaction mixture. Chemiluminescence was recorded continuously by an Aminco Chem-Glow model J4-7441S photometer equipped with a Hitachi model 056 recorder, and the peak height of luminol intensity was measured. The effects of test compounds were expressed as IC50 values (μM).

The conditions of data set [3]: prior art, in words; cited from earlier work.
The conditions of data set [4]: prior art, in words; cited from earlier work. This is another data set of the same source.
The conditions of data set [5]: prior art, in words; cited from earlier work. This is another data set of the same source.
For data set [6], the system named is histamine induced asthma. Description: Inhibitory effect on histamine induced asthma in guinea pigs. Particulars: Cavia porcellus, po, read-out: Antihistaminic activity (% inhibition). It is filed as in vivo, guinea pig (female Hartley). As for the experimental part: 2. Inhibitory effect on histamine induced asthma in guinea pigs
The experiment was performed according to the method of Suyama et al. which is described in Jpn. J. Allergol. 15, 549-556, 1966. Female Hartley guinea pigs weighing 300-400 g were used in groups of 5 or more. One hour after the oral administration of test compound solution, animals were placed in a transparent square box and exposed to a 0.2% histamine hydrochloride (Nakarai Chemicals, Ltd.) saline aerosol using an ultrasonic nebulizer (Nihon Kohden, TUR-3000). Protection was assessed during the exposure period (5 minutes) by the presence or absence of loss of righting due to dyspnea. The effects of test compounds were expressed in terms of percent inhibition.

Data set [7] in a line: Acute toxicity in mice. The note with it: mouse, in vivo, 14 days observation. As for the experimental part:
(§1) 3. Acute toxicity in mice and rats
(§2) The acute toxicity of test compound No. 2 was evaluated in 120 male mice weighing 30-42 g and 120 female mice weighing 23-35 g, and in 56 male rats weighing 150-190 g and 56 female rats weighing 115-150 g by oral and intraperitoneal administration. […] LD50 values were calculated by probit method.

Data set [8] can be described thus: Acute toxicity in rats. Particulars: rat, in vivo, 14 days observation. As for the experimental part:
as §1, §2

Where [9] appears, read: arachidonic acid induced chemiluminescence, guinea pig leukocytes, median inhibition concentration, read-out: 5-lipoxygenase inhibiting activity IC50.

Counter-ions that a name gives are not always drawn. Like-named read-outs stand apart in the source and are kept apart here. Some results are limits rather than exact numbers.

Take `CCCCC/C=C\C\C=C/C=C/C=C/[C@@H](SC[C@H](N)C(=O)O)[C@@H](O)CCCC(=O)O` [LTE4]: the bronchoconstriction activity entry in data set [1] is “strong bronchoconstriction activity”.
For the molecule `CCCCn1c(C)c(C(=O)NC2CCN(CCOc3ccccc3)CC2)c2cc(O)ccc21` [Example 31, 1-Butyl-5-hydroxy-2-methyl-N-(1-(2-phenoxyethyl)-4-piperidyl)indole-3-carboxamide], the IC50 in data set [2] amounted to 260 nM.
Consider `O=C(NC1CCN(CCc2c[nH]c3ccccc23)CC1)c1c[nH]c2ccccc12` [3-[2-(4-[indole-3-carboxamido]-1-piperidyl)ethyl]indole], for which the anti-histaminic activity entry in data set [3] was “very weak anti-histaminic activity”. The anti-inflammatory action result in data set [4] is “effective anti-inflammatory action”. The hypotensive effect result in data set [5] was “moderate hypotensive effect”.
With `O=C(NC1CCN(CCc2c[nH]c3ccccc23)CC1)c1ccccc1` [indoramin, 3-[2-(4-benzamidopiperid-1-yl)ethyl]indole], the hypotensive effect entry in data set [5] is listed as “possesses hypotensive activity”.
As for `Cc1c(C(=O)NC2CCN(CCc3ccccc3)CC2)c2cc(O)ccc2n1-c1ccccc1` [Example 29, 5-Hydroxy-2-methyl-N-(1-(2-phenylethyl)-4-piperidyl)-1-phenylindole-3-carboxamide hydrochloride], the IC50 in data set [2] (setting [9]) is 1400 nM. Besides, in data set [6] (0.5 mg/kg, p.o., 1 hour before histamine aerosol, guinea pigs), the inhibition in vivo at 0.5 mg/kg worked out at 33%.
For the molecule `CCCCC/C=C\C\C=C/C=C/C=C/[C@@H](SC[C@H](NC(=O)CC[C@H](N)C(=O)O)C(=O)NCC(=O)O)[C@@H](O)CCCC(=O)O` [LTC4], the bronchoconstriction activity entry in data set [1] is “strong bronchoconstriction activity”.
`Cc1c(C(=O)NC2CCN(CCc3ccccc3)CC2)c2cc(O)ccc2n1C1CCCCC1` [Example 12, 1-Cyclohexyl-5-hydroxy-2-methyl-N-(1-(2-phenylethyl)-4-piperidyl)indole-3-carboxamide hydrochloride hemihydrate] had an IC50 in data set [2] of 1700 nM.
On to `Cc1c(C(=O)NC2CCN(CCc3ccccc3)CC2)c2cc(O)ccc2n1C(C)C` [Example 5, 5-hydroxy-1-isopropyl-2-methyl-N-(1-(2-phenylethyl)-4-piperidyl)indole-3-carboxamide hydrochloride], for which, in data set [6] (1 h), the inhibition in vivo at 0.5 mg/kg turned out to be 100%.
Regarding `CN(C)CCOC(c1ccccc1)c1ccccc1` [Comparison B, Diphenhydramine, reference compound], in data set [6] (1 h), the inhibition in vivo at 5 mg/kg was 20% and the inhibition in vivo at 25 mg/kg was 100%.
`Cc1c(C(=O)NC2CCN(CCc3ccccc3)CC2)c2cc(O)ccc2n1Cc1ccccc1` [Example 4, 1-benzyl-5-hydroxy-2-methyl-N-(1-(2-phenylethyl)-4-piperidyl)indole-3-carboxamide hydrochloride] showed an IC50 in data set [2] of 850 nM. For the same molecule, the inhibition in vivo at 0.5 mg/kg in data set [6] (1 h) was found to be 60%.
For the molecule `Cc1c(C(=O)NC2CCN(CCCc3ccccc3)CC2)c2cc(O)ccc2n1-c1ccccc1` [Example 26, 5-Hydroxy-2-methyl-1-phenyl-N-(1-(3-phenylpropyl)-4-piperidyl)indole-3-carboxamide hydrochloride monohydrate], the IC50 in data set [2] (setting [9]) turned out to be 2500 nM.
With `Cc1c(C(=O)NC2CCN(CCc3ccccc3)CC2)c2cc(O)ccc2n1-c1ccc(Cl)cc1` [Example 24, 1-(p-Chlorophenyl)-5-hydroxy-2-methyl-N-(1-(2-phenylethyl)-4-piperidyl)indole-3-carboxamide hydrochloride], the IC50 in data set [2] (setting [9]) stood at 4200 nM.
In the case of `Cc1c(C(=O)NC2CCN(CCc3ccccc3)CC2)c2cc(O)ccc2n1CCc1ccccc1` [Example 16, 5-Hydroxy-2-methyl-1-(2-phenylethyl)-N-(1-(2-phenylethyl)-4-piperidyl)indole-3-carboxamide hydrochloride], inhibition in data set [2] was half-maximal at 1000 nM (IC50). Besides, the inhibition in vivo at 2.5 mg/kg in data set [6] (1 h) amounted to 100%.
In the case of `CCCCC/C=C\C\C=C/C=C/C=C/[C@@H](SC[C@H](N)C(=O)NCC(=O)O)[C@@H](O)CCCC(=O)O` [LTD4], the bronchoconstriction activity entry in data set [1] is given as “strong bronchoconstriction activity”.
Consider `CCCCCCn1c(C)c(C(=O)NC2CCN(CCc3ccccc3)CC2)c2cc(O)ccc21` [Example 10, 1-Hexyl-5-hydroxy-2-methyl-N-(1-(2-phenylethyl)-4-piperidyl)indole-3-carboxamide hydrochloride monohydrate], for which, in data set [6] (1 h), the inhibition in vivo at 0.5 mg/kg was determined as 20% and the inhibition in vivo at 2.5 mg/kg is 100%.
With `CCCCn1c(C)c(C(=O)NC2CCN(CCc3ccccc3)CC2)c2cc(O)ccc21` [Example 2, 1-butyl-5-hydroxy-2-methyl-N-(1-(2-phenylethyl)-4-piperidyl)indole-3-carboxamide], the LD50 at 336 h was 1470 mg/kg in data set [7] (ip, female mice); 1430 mg/kg in data set [7] (ip, male mice); above 10400 mg/kg in data set [7] (po, female mice); above 12000 mg/kg in data set [7] (po, male mice); 1930 mg/kg in data set [8] (ip, female rats); 1940 mg/kg in data set [8] (ip, male rats). In addition, the 50% lethal dose (LD50) at 336 h in data set [8] (po, female rats) was above 9000 mg/kg; in data set [8] (po, male rats), above 9000 mg/kg. The molecule further had an IC50 in data set [2] of 450 nM. In addition, the inhibition in vivo at 0.5 mg/kg in data set [6] (1 h) was found to be 40%. Also, the inhibition in vivo at 2.5 mg/kg in data set [6] (1 h) was determined as 100%.
In the case of `Cc1c(C(=O)NC2CCN(CCc3ccccc3)CC2)c2cc(O)ccc2n1CC(C)C` [Example 6, 5-Hydroxy-1-isobutyl-2-methyl-N-(1-(2-phenylethyl)-4-piperidyl)indole-3-carboxamide hydrochloride], in data set [6] (1 h), the inhibition in vivo at 0.5 mg/kg came out at 0% and the inhibition in vivo at 2.5 mg/kg turned out to be 60%.
